Laboratory results taken from ChEMBL document CHEMBL3992482 (Medchemcomm, 2016).
Calls of active or inactive are those of the source. No cut-off for these calls is given here.

What was measured:
A549 = experiment: Cytotoxicity against human A549 cells assessed as reduction in cell viability after 48 hrs by MTT assay; format: functional, cell-based; conditions: A549, 48 h
HeLa [1] = experiment: Cytotoxicity against human HeLa cells assessed as reduction in cell viability after 48 hrs by MTT assay; format: functional, cell-based
MCF7 = experiment: Cytotoxicity against human MCF7 cells assessed as reduction in cell viability after 48 hrs by MTT assay; format: functional, cell-based; conditions: MCF7, 48 h
HeLa [2] = experiment: Induction of apoptosis in human HeLa cells assessed as live cells at 10 uM after 24 hrs by Annexin-V FITC/propidium iodide staining based flow cytometry (reference value: 95.5%); format: functional
HeLa [3] = experiment: Cell cycle arrest in human HeLa cells assessed as accumulation at G2/M phase at 5 uM after 24 hrs by propidium iodide staining based flow cytometry (reference value: 9.89%); format: functional
HeLa [4] = experiment: Induction of apoptosis in human HeLa cells assessed as late apoptotic cells at 10 uM after 24 hrs by Annexin-V FITC/propidium iodide staining based flow cytometry (reference value: 0.29%); format: functional
HeLa [5] = experiment: Induction of apoptosis in human HeLa cells assessed as live cells at 5 uM after 24 hrs by Annexin-V FITC/propidium iodide staining based flow cytometry (reference value: 95.5%); format: functional
HeLa [6] = experiment: Cell cycle arrest in human HeLa cells assessed as accumulation at S phase after 24 hrs by propidium iodide staining based flow cytometry; format: functional
HeLa [7] = experiment: Cell cycle arrest in human HeLa cells assessed as accumulation at G1 phase at 10 uM after 24 hrs by propidium iodide staining based flow cytometry (reference value: 66.42%); format: functional
HeLa [8] = experiment: Induction of apoptosis in human HeLa cells assessed as early apoptotic cells at 10 uM after 24 hrs by Annexin-V FITC/propidium iodide staining based flow cytometry (reference value: 2.36%); format: functional
HeLa [9] = experiment: Induction of apoptosis in human HeLa cells assessed as nuclear fragmentation after 24 hrs by acridine orange/ethidium bromide staining based fluorescence confocal microscopic method; format: functional, cell-based
HeLa [10] = experiment: Induction of apoptosis in human HeLa cells after 24 hrs by Annexin-V FITC/propidium iodide staining based flow cytometry; format: functional, cell-based
HeLa [11] = experiment: Induction of apoptosis in human HeLa cells assessed as chromatin condensation after 24 hrs by acridine orange/ethidium bromide staining based fluorescence confocal microscopic method; format: functional, cell-based
HeLa [12] = experiment: Induction of apoptosis in human HeLa cells assessed as crescent shaped cell masses at 5 to 10 uM after 24 hrs by […] staining based fluorescence microscopic method; format: functional
HeLa [13] = experiment: Induction of apoptosis in human HeLa cells assessed as late apoptotic cells at 5 uM after 24 hrs by Annexin-V FITC/propidium iodide staining based flow cytometry (reference value: 0.29%); format: functional
HeLa [14] = experiment: Induction of apoptosis in human HeLa cells assessed as necrotic cells at 5 uM after 24 hrs by Annexin-V FITC/propidium iodide staining based flow cytometry (reference value: 1.81%); format: functional
HeLa [15] = experiment: Cell cycle arrest in human HeLa cells assessed as accumulation at G1 phase at 5 uM after 24 hrs by propidium iodide staining based flow cytometry (reference value: 66.42%); format: functional
HeLa [16] = experiment: Induction of apoptosis in human HeLa cells assessed as necrotic cells at 10 uM after 24 hrs by Annexin-V FITC/propidium iodide staining based flow cytometry (reference value: 1.81%); format: functional
HeLa [17] = experiment: Induction of apoptosis in human HeLa cells assessed as early apoptotic cells at 5 uM after 24 hrs by Annexin-V FITC/propidium iodide staining based flow cytometry (reference value: 2.36%); format: functional
HeLa [18] = experiment: Induction of apoptosis in human HeLa cells assessed as ring shaped cell masses at 5 to 10 uM after 24 hrs by […] staining based fluorescence microscopic method; format: functional
HeLa [19] = experiment: Cell cycle arrest in human HeLa cells assessed as accumulation at S phase at 10 uM after 24 hrs by propidium iodide staining based flow cytometry (reference value: 23.69%); format: functional
HeLa [20] = experiment: Cell cycle arrest in human HeLa cells assessed as accumulation at S phase at 5 uM after 24 hrs by propidium iodide staining based flow cytometry (reference value: 23.69%); format: functional
HeLa [21] = experiment: Cell cycle arrest in human HeLa cells assessed as accumulation at G2/M phase at 10 uM after 24 hrs by propidium iodide staining based flow cytometry (reference value: 9.89%); format: functional

Structure (SMILES)	IC50 (A549) [µM]	IC50 (HeLa [1]) [µM]	IC50 (MCF7) [µM]	other results
CC(C)(C)c1nc(Nc2ccc(Cl)cc2)sc1Cc1ccc2c(c1)OCO2	9.19	11	3.48	
CC(C)(C)c1nc(Nc2ccc(Br)cc2)sc1Cc1ccc2c(c1)OCO2	10.1	13.3	4.71	
CC(C)(C)c1nc(Nc2cccc(Br)c2)sc1Cc1ccc2c(c1)OCO2	5	6.43	4.66	
O=c1[nH]cc(F)c(=O)[nH]1 [FLUOROURACIL]	26	56.5	79.3	
Cc1cccc(C)c1Nc1nc(C(C)(C)C)c(Cc2ccc3c(c2)OCO3)s1	15.9	83.5	20.1	
CC(C)(C)c1nc(Nc2ccc([N+](=O)[O-])cc2F)sc1Cc1ccc2c(c1)OCO2	67.2	19.3	33.3	
CCOC(=O)c1ccc(Nc2nc(C(C)(C)C)c(Cc3ccc4c(c3)OCO4)s2)cc1	8.51	47.5	5.95	
CC(C)(C)c1nc(Nc2ccccc2F)sc1Cc1ccc2c(c1)OCO2	7.57	18.3	4.49	
CC(C)(C)c1nc(Nc2ccccc2)sc1Cc1ccc2c(c1)OCO2	20.4	12	11.6	
Cc1cccc(Nc2nc(C(C)(C)C)c(Cc3ccc4c(c3)OCO4)s2)c1	12.7	18.8	4.91	
CC(C)(C)c1nc(Nc2cccc(C(F)(F)F)c2)sc1Cc1ccc2c(c1)OCO2	15.8	13	3.32	
CC(C)(C)c1nc(Nc2ccccn2)sc1Cc1ccc2c(c1)OCO2	5.13	4.79	4.71	
CC(C)(C)c1nc(Nc2ccc([N+](=O)[O-])cc2Cl)sc1Cc1ccc2c(c1)OCO2	80.9	51.7	76.5	
CC(C)(C)c1nc(Nc2cc(C(F)(F)F)cc(C(F)(F)F)c2)sc1Cc1ccc2c(c1)OCO2	3.52	2.07	9.03	Activity (HeLa [2]): 35.1%; Activity (HeLa [3]): 16.03%; Activity (HeLa [4]): 1.94%; Activity (HeLa [5]): 77.8%; Activity (HeLa [6]): Dose-dependent effect; Activity (HeLa [7]): 46.14%; Activity (HeLa [8]): 62.7%; Activity (HeLa [9]): Dose-dependent effect; Activity (HeLa [10]): Dose-dependent effect; Activity (HeLa [11]): Dose-dependent effect; Activity (HeLa [12]): Active; Activity (HeLa [13]): 2.27%; Activity (HeLa [14]): 0.69%; Activity (HeLa [15]): 56.87%; Activity (HeLa [16]): 0.23%; Activity (HeLa [17]): 19.2%; Activity (HeLa [18]): Active; Activity (HeLa [19]): 35.93%; Activity (HeLa [20]): 27.1%; Activity (HeLa [21]): 17.93%
CC(C)(C)c1nc(Nc2ccc([N+](=O)[O-])cc2)sc1Cc1ccc2c(c1)OCO2	8.26	4.15	2.55	
CC(C)(C)c1nc(Nc2ccc(F)c(Cl)c2)sc1Cc1ccc2c(c1)OCO2	16.3	4.6	8.66	Activity (HeLa [2]): 75.2%; Activity (HeLa [3]): 10.51%; Activity (HeLa [4]): 4.39%; Activity (HeLa [5]): 86.1%; Activity (HeLa [6]): Dose-dependent effect; Activity (HeLa [7]): 53.81%; Activity (HeLa [8]): 19.5%; Activity (HeLa [9]): Dose-dependent effect; Activity (HeLa [10]): Dose-dependent effect; Activity (HeLa [11]): Dose-dependent effect; Activity (HeLa [12]): Active; Activity (HeLa [13]): 1.58%; Activity (HeLa [14]): 0.61%; Activity (HeLa [15]): 60.8%; Activity (HeLa [16]): 0.94%; Activity (HeLa [17]): 11.7%; Activity (HeLa [18]): Active; Activity (HeLa [19]): 36.63%; Activity (HeLa [20]): 28.69%; Activity (HeLa [21]): 9.56%
CC(C)(C)c1nc(Nc2ccccc2Cl)sc1Cc1ccc2c(c1)OCO2	6.84	18.9	8.99	

Structure (SMILES)	IC50 (A549) [µM]	IC50 (HeLa [1]) [µM]	IC50 (MCF7) [µM]	other results
CC(C)(C)c1nc(Nc2cccc3ccccc23)sc1Cc1ccc2c(c1)OCO2	55.2	14.1	22.3	
CC(C)(C)c1nc(Nc2ccc(C(F)(F)F)cc2)sc1Cc1ccc2c(c1)OCO2	9.22	10.4	3.54	
CC(C)(C)c1nc(Nc2cccc(Cl)c2Cl)sc1Cc1ccc2c(c1)OCO2	14.2	34.6	19.4	
Cc1ccc(Nc2nc(C(C)(C)C)c(Cc3ccc4c(c3)OCO4)s2)c(C)c1	11.3	18.9	18.7	
CC(C)(C)c1nc(Nc2ccccc2[N+](=O)[O-])sc1Cc1ccc2c(c1)OCO2	82.8	194	> 200	
CC(C)(C)c1nc(Nc2cc(Cl)cc(Cl)c2)sc1Cc1ccc2c(c1)OCO2	17	5.8	17.7	
CC(C)(C)c1nc(Nc2c(Br)cc(OC(F)(F)F)cc2Br)sc1Cc1ccc2c(c1)OCO2	103	53.3	103	
CC(=O)O[C@H]1C(=O)[C@@]2(C)[C@H]([C@H](OC(=O)c3ccccc3)[C@]3(O)C[C@H](OC(=O)[C@H](O)[C@@H](NC(=O)c4ccccc4)c4ccccc4)C(C)=C1C3(C)C)[C@]1(OC(C)=O)CO[C@@H]1C[C@@H]2O [PACLITAXEL]	21	19.3	14	
CC(C)(C)c1nc(Nc2ccccc2Br)sc1Cc1ccc2c(c1)OCO2	26.1	52	39.9	
CC(C)(C)c1nc(Nc2cccc(Cl)c2)sc1Cc1ccc2c(c1)OCO2	2.06	8.27	3	
Cc1ccccc1Nc1nc(C(C)(C)C)c(Cc2ccc3c(c2)OCO3)s1	18.7	24.8	19.1	
Cc1ccc(Nc2nc(C(C)(C)C)c(Cc3ccc4c(c3)OCO4)s2)cc1C	12.2	20.7	20.4	
CC(C)(C)c1nc(Nc2ccc(F)cc2)sc1Cc1ccc2c(c1)OCO2	5.81	25.3	15	
COc1ccc(Nc2nc(C(C)(C)C)c(Cc3ccc4c(c3)OCO4)s2)cc1	10.1	11.7	9.36	
CC(C)(C)c1nc(Nc2ccc(Cl)c(Cl)c2)sc1Cc1ccc2c(c1)OCO2	11.5	7.83	11.2	
Cc1ccc2cccc(Nc3nc(C(C)(C)C)c(Cc4ccc5c(c4)OCO5)s3)c2n1	55.5	65.1	> 200	
